The record followed here is patent US20240409534A1, “CRYSTAL FORM OF METHYLPYRAZOLE-SUBSTITUTED PYRIDOIMIDAZOLE COMPOUND AND PREPARATION METHOD THEREFOR” (priority 2021, published 2024).

Each structure is given as a SMILES string.

One data set can be described thus: Pharmacokinetic study in rats at 100 mpk (Experimental Embodiment 4). The following applies: Sprague-Dawley, rat, plasma, po, 100 mg/kg, male SD rats. The data set is classed as in vivo. As for the experimental part:
SD rats (overnight fasting, 7 to 11 weeks old)
The compound of the present disclosure or its crystal form of 5% DMSO/10% Kolliphor HS15/85% (0.2% (v/v) Tween80 aqueous solution) at 10 mg/mL was administered by gavage to male SD rats (overnight fasting, 7 to 11 weeks old) at a dose of 100 mg/kg. At 0.25, 0.5, 1.0, 2.0, 4.0, 8.0 and 24 h after administration, approximately 0.2 mL of blood was collected from the jugular vein of the animals in all three groups, placed in an anticoagulant tube added with EDTA-K2, and centrifuged for the separation of plasma. Plasma concentrations were determined by LC-MS/MS method, and relevant pharmacokinetic parameters were calculated using WinNonlin™ Version 6.3 (Pharsight, Mountain View, CA) pharmacokinetic software with non-compartmental model linear-log trapezoidal method.
In the case of `Cn1cc(-c2ccn3c(-c4cc(NS(C)(=O)=O)nc(-c5ccc(F)cc5F)c4)cnc3c2)cn1` [Compound represented by formula (I)], the AUC(0-inf) was determined as 12.6 µM·h, the exposure AUC(0-t) was found to be 12.6 µM·h, the highest level (Cmax) was 3.75 µM and the Tmax amounted to 30 min. This compound also gave a half-life of 135 min.

As for `Cl.Cn1cc(-c2ccn3c(-c4cc(NS(C)(=O)=O)nc(-c5ccc(F)cc5F)c4)cnc3c2)cn1`, the AUC(0-inf) is 32.3 µM·h, the exposure AUC(0-t) was found to be 32.3 µM·h, the Cmax worked out at 8.78 µM and the Tmax came out at 30 min. Moreover, the half-life is 154 min.

On to `CS(=O)(=O)O.Cn1cc(-c2ccn3c(-c4cc(NS(C)(=O)=O)nc(-c5ccc(F)cc5F)c4)cnc3c2)cn1`, for which the AUC(0-inf) turned out to be 179 µM·h, the AUC(0-t) is 179 µM·h, the Cmax is 22.1 µM and the Tmax was found to be 150 min. Moreover, the half-life was 111 min.

The data set is the same for the next values; noted with them: male SD rats.
The compound `Cn1cc(-c2ccn3c(-c4cc(NS(C)(=O)=O)nc(-c5ccc(F)cc5F)c4)cnc3c2)cn1` [Compound represented by formula (I)] had a Tlast of 24.0 h.

`Cl.Cn1cc(-c2ccn3c(-c4cc(NS(C)(=O)=O)nc(-c5ccc(F)cc5F)c4)cnc3c2)cn1` returned a Tlast of 24.0 h.

As for `CS(=O)(=O)O.Cn1cc(-c2ccn3c(-c4cc(NS(C)(=O)=O)nc(-c5ccc(F)cc5F)c4)cnc3c2)cn1`, the Tlast was 24.0 h.
